# According to patent US20180228818A1, “PHARMACEUTICAL COMPOSITION COMPRISING ASPRIN, METFORMIN, AND SEROTONIN WITH NON-IONIC SURFACTANT” (ALS MOUNTAIN LLC, priority 2014, published 2018):
# Test: Solubilization test of Poloxamer 188/407 to Aspirin in ethanol
# Type: physicochemical
# Settings: for Amount Dissolved: 10 ml, room temperature (30° C.)
# Protocol: (1) 0%,10%, 20%, 30%, 40% (m/v) of Poloxamer 188/407 anhydrous ethanol solution were prepared respectively,10 ml of each solution was added into five sealed centrifuge tubes respectively (each centrifuge tube was numbered accordingly).
# (2) Each centrifuge tube was added with adequate amount of Aspirin based on the pre-test data (please refer to Table 1: 0 h data), and shaken to dissolution at room temperature (30° C.).
# 0.1 g of Aspirin would be added into the tube when complete dissolution was observed, then sealed and continued shaking. In cases which the drug was not dissolved, the previous amount of drug dissolved would be recorded as the maximum amount needed for dissolution.
# (4) Dissolution observation was continued until some amount of drug compound could not be dissolved.
# (5) The observation of each tube was recorded in Table 1
structure (smiles),measurement,setting,value
"CC(=O)Oc1ccccc1C(=O)O [Aspirin, acetylsalicylic acid]",Solubilization Rate,Poloxamer 188 0%,0%
same,Amount Dissolved,Poloxamer 188 0% (m/v) in anhydrous ethanol,2.50 g
same,Solubilization Rate,Poloxamer 188 10%,12%
same,Amount Dissolved,Poloxamer 188 10% (m/v) in anhydrous ethanol,2.80 g
same,Solubilization Rate,Poloxamer 188 20%,20%
same,Amount Dissolved,Poloxamer 188 20% (m/v) in anhydrous ethanol,3.00 g
same,Solubilization Rate,Poloxamer 188 30%,24%
same,Amount Dissolved,Poloxamer 188 30% (m/v) in anhydrous ethanol,3.10 g
same,Solubilization Rate,Poloxamer 188 40%,28%
same,Amount Dissolved,Poloxamer 188 40% (m/v) in anhydrous ethanol,3.20 g
same,solubility of Aspirin,Poloxamer 188 and 407 anhydrous ethanol,increases with Poloxamer concentration
same,Solubilization Rate,Poloxamer 407 0%,0%
same,Amount Dissolved,Poloxamer 407 0% (m/v) in anhydrous ethanol,2.50 g
same,Solubilization Rate,Poloxamer 407 10%,12%
same,Amount Dissolved,Poloxamer 407 10% (m/v) in anhydrous ethanol,2.80 g
same,Solubilization Rate,Poloxamer 407 20%,20%
same,Amount Dissolved,Poloxamer 407 20% (m/v) in anhydrous ethanol,3.00 g
same,Solubilization Rate,Poloxamer 407 30%,24%
same,Amount Dissolved,Poloxamer 407 30% (m/v) in anhydrous ethanol,3.10 g
same,Solubilization Rate,Poloxamer 407 40%,28%
same,Amount Dissolved,Poloxamer 407 40% (m/v) in anhydrous ethanol,3.20 g
